Experimental data as given in US12545652B2, “Crystalline forms of a TYK2 inhibitor” (Sareum Limited, priority 2020, dated 2026).

Assay: Anti-solvent addition crystallisation at 60° C., observations and form fate by XRPD
Assay type: physicochemical
Conditions: for Crystalline Form fate by XRPD: Addition at 60° C.
Method: The equilibration of Form A in a range of solvents with thermal modulation indicated a range of suitable solvents and anti-solvents. Consequently, Form A was dissolved in a range of four solvents at an elevated temperature, clarified and charged with anti-solvent at the elevated temperature to assess the propensity of the compound towards anti-solvent-driven crystallisation.
2-(2,6-dichlorophenyl)-5-[4-(1,1-dioxo-1,4-thiazinane-4-carbonyl)anilino]oxazole-4-carboxamide Form A, 4×150-152 mg, was weighed into four crystallisation tubes. Four different solvents (see Table 8) were then charged to the solids and the resulting mixtures heated to 60° C. Where suspensions persisted, additional solvent was charged to achieve dissolution. Upon dissolution of the four mixtures, the solutions were clarified and aliquots containing ca. 30 mg of the compound were charged to four crystallisation tubes.
To each of the four aliquots was charged an anti-solvent (see Table 8), ca. 5 vol., at 60° C. and immediate observations were made. Observations were made after equilibration for 1 hour before additional anti-solvent, 5 vol., was charged to all mixtures. Where suspensions or immiscible mixtures had formed, no further anti-solvent was charged. To all solutions and hazes, additional anti-solvent up to 20 vol. total charge was added.
The mixtures were equilibrated at 60° C. for another hour before cooling to 25° C. over ca. 3 hours and equilibrated for ca. 14½ hours. […] Upon isolation, all solids were dried in vacuo under air for ca. 1 hour and then dried in the oven in vacuo at 45° C. for 70 hours.

Compound: NC(=O)c1nc(-c2c(Cl)cccc2Cl)oc1Nc1ccc(C(=O)N2CCS(=O)(=O)CC2)cc1 [Form A, 2-(2,6-dichlorophenyl)-5-[4-(1,1-dioxo-1,4-thiazinane-4-carbonyl)anilino]oxazole-4-carboxamide]
- Observation on outcome (ID B4, THF 25 vol., 2-Chlorobutane, 60° C., 5 vol. anti-solvent, Immediate): Soln.
- Observation on outcome (ID B4, THF 25 vol., 2-Chlorobutane, 60° C., 10 vol. anti-solvent): Susp.
- Observation on outcome (ID C1, Nitromethane 50 vol., Cyclohexane, 25° C., 20 vol, 19 Hrs): Bi. Susp.
- Observation on outcome (ID C1, Nitromethane 50 vol., Cyclohexane, 60° C., 5 vol. anti-solvent, 1 Hr): Immiscible
- Observation on outcome (ID C1, Nitromethane 50 vol., Cyclohexane, 60° C., 5 vol. anti-solvent, Immediate): Immiscible
- Observation on outcome (ID C1, Nitromethane 50 vol., Cyclohexane, 60° C., 10 vol. anti-solvent): Immiscible
- Observation on outcome (ID C2, Nitromethane 50 vol., Heptane, 25° C., 20 vol, 19 Hrs): Bi. Susp.
- Observation on outcome (ID C2, Nitromethane 50 vol., Heptane, 60° C., 5 vol. anti-solvent, 1 Hr): Soln.
- Observation on outcome (ID C2, Nitromethane 50 vol., Heptane, 60° C., 5 vol. anti-solvent, Immediate): Soln.
- Observation on outcome (ID C2, Nitromethane 50 vol., Heptane, 60° C., 10 vol. anti-solvent): Soln.
- Observation on outcome (ID C2, Nitromethane 50 vol., Heptane, 60° C., 15 vol. anti-solvent): Soln.
- Observation on outcome (ID C2, Nitromethane 50 vol., Heptane, 60° C., 20 vol. anti-solvent): Soln.
- Observation on outcome (ID C3, Nitromethane 50 vol., Benzotrifluoride, 25° C., 20 vol, 19 Hrs): Susp.
- Observation on outcome (ID C3, Nitromethane 50 vol., Benzotrifluoride, 60° C., 5 vol. anti-solvent, 1 Hr): Soln.
- Observation on outcome (ID C3, Nitromethane 50 vol., Benzotrifluoride, 60° C., 5 vol. anti-solvent, Immediate): Soln.
- Observation on outcome (ID C3, Nitromethane 50 vol., Benzotrifluoride, 60° C., 10 vol. anti-solvent): Soln.
- Observation on outcome (ID C3, Nitromethane 50 vol., Benzotrifluoride, 60° C., 15 vol. anti-solvent): Soln.
- Observation on outcome (ID C3, Nitromethane 50 vol., Benzotrifluoride, 60° C., 20 vol. anti-solvent): Soln.
- Observation on outcome (ID C4, Nitromethane 50 vol., 2-Chlorobutane, 25° C., 20 vol, 19 Hrs): Susp.
- Observation on outcome (ID C4, Nitromethane 50 vol., 2-Chlorobutane, 60° C., 5 vol. anti-solvent, 1 Hr): Soln.
- Observation on outcome (ID C4, Nitromethane 50 vol., 2-Chlorobutane, 60° C., 5 vol. anti-solvent, Immediate): Soln.
- Observation on outcome (ID C4, Nitromethane 50 vol., 2-Chlorobutane, 60° C., 10 vol. anti-solvent): Soln.
- Observation on outcome (ID C4, Nitromethane 50 vol., 2-Chlorobutane, 60° C., 15 vol. anti-solvent): Soln.
- Observation on outcome (ID C4, Nitromethane 50 vol., 2-Chlorobutane, 60° C., 20 vol. anti-solvent): Soln.
- Observation on outcome (ID D1, MeCN/water, 4:1 55 vol., Cyclohexane, 25° C., 20 vol, 19 Hrs): Immiscible
- Observation on outcome (ID D1, MeCN/water, 4:1 55 vol., Cyclohexane, 60° C., 5 vol. anti-solvent, 1 Hr): Immiscible
- Observation on outcome (ID D1, MeCN/water, 4:1 55 vol., Cyclohexane, 60° C., 5 vol. anti-solvent, Immediate): Immiscible
- Observation on outcome (ID D1, MeCN/water, 4:1 55 vol., Cyclohexane, 60° C., 10 vol. anti-solvent): Immiscible
- Observation on outcome (ID D2, MeCN/water, 4:1 55 vol., Heptane, 25° C., 20 vol, 19 Hrs): Bi. Susp.
- Observation on outcome (ID D2, MeCN/water, 4:1 55 vol., Heptane, 60° C., 5 vol. anti-solvent, 1 Hr): Immiscible
- Observation on outcome (ID D2, MeCN/water, 4:1 55 vol., Heptane, 60° C., 5 vol. anti-solvent, Immediate): Immiscible
- Observation on outcome (ID D2, MeCN/water, 4:1 55 vol., Heptane, 60° C., 10 vol. anti-solvent): Immiscible
- Observation on outcome (ID D3, MeCN/water, 4:1 55 vol., Benzotrifluoride, 25° C., 20 vol, 19 Hrs): Susp.
- Observation on outcome (ID D3, MeCN/water, 4:1 55 vol., Benzotrifluoride, 60° C., 5 vol. anti-solvent, 1 Hr): Soln.
- Observation on outcome (ID D3, MeCN/water, 4:1 55 vol., Benzotrifluoride, 60° C., 5 vol. anti-solvent, Immediate): Soln.
- Observation on outcome (ID D3, MeCN/water, 4:1 55 vol., Benzotrifluoride, 60° C., 10 vol. anti-solvent): Haze
- Observation on outcome (ID D3, MeCN/water, 4:1 55 vol., Benzotrifluoride, 60° C., 15 vol. anti-solvent): Immiscible
- Observation on outcome (ID D3, MeCN/water, 4:1 55 vol., Benzotrifluoride, 60° C., 20 vol. anti-solvent): Immiscible
- Observation on outcome (ID D4, MeCN/water, 4:1 55 vol., 2-Chlorobutane, 25° C., 20 vol, 19 Hrs): Bi. Susp.
- Observation on outcome (ID D4, MeCN/water, 4:1 55 vol., 2-Chlorobutane, 60° C., 5 vol. anti-solvent, 1 Hr): Soln.
- Observation on outcome (ID D4, MeCN/water, 4:1 55 vol., 2-Chlorobutane, 60° C., 5 vol. anti-solvent, Immediate): Soln.
- Observation on outcome (ID D4, MeCN/water, 4:1 55 vol., 2-Chlorobutane, 60° C., 10 vol. anti-solvent): Haze
- Observation on outcome (ID D4, MeCN/water, 4:1 55 vol., 2-Chlorobutane, 60° C., 15 vol. anti-solvent): Haze
- Observation on outcome (ID D4, MeCN/water, 4:1 55 vol., 2-Chlorobutane, 60° C., 20 vol. anti-solvent): Haze
- Crystalline Form fate by XRPD (MeCN/water, 4:1 55 vol., 2-Chlorobutane): Form A
- Crystalline Form fate by XRPD (MeCN/water, 4:1 55 vol., Benzotrifluoride): Form A
- Crystalline Form fate by XRPD (MeCN/water, 4:1 55 vol., Heptane): Form A
- Crystalline Form fate by XRPD (Nitromethane 50 vol., 2-Chlorobutane): Form C +
- Crystalline Form fate by XRPD (Nitromethane 50 vol., Benzotrifluoride): Form B
- Crystalline Form fate by XRPD (Nitromethane 50 vol., Heptane): Form B
- Crystalline Form fate by XRPD (THF 25 vol., 2-Chlorobutane): Form B
- Crystalline Form fate by XRPD (THF 25 vol., Benzotrifluoride): Form B
- Crystalline Form fate by XRPD (THF 25 vol., Heptane): Form B
- Crystalline Form fate by XRPD (THF/water, 4:1 10 vol., 2-Chlorobutane): Form A
- Crystalline Form fate by XRPD (THF/water, 4:1 10 vol., Benzotrifluoride): Form A
